Laboratory results as given in ChEMBL document CHEMBL3885861, “Open TG-GATES”.

Species on record: Rattus norvegicus
Test: Open TG-GATES - Regimen: Single
Type: toxicity, organism-based, Sprague-Dawley
Set-up: regimen Single, gender Male, age 6 weeks
Conditions: in vivo, po, 0 mg/kg, route gavage, dose level Control; for APTT / Bas / Eos / Fbg / Hb / Ht / Lym / MCH / MCHC / MCV / Mono / Neu / PT / Plat / RBC / Ret / WBC: tissue Blood; for LIVER: tissue Liver; for A/G / ALP / ALT / AST / BUN / CRE / Ca / Cl / DBIL / GLC / IP / K / LDH / Na / PL / RALB / TBIL / TC / TG / TP / gamma-GTP: tissue Plasma

Molecule O=[N+]([O-])c1ccc(O)c([N+](=O)[O-])c1 [2,4-DINITROPHENOL] has a TERMINAL_BW (3 h) of 200.9 g, an APTT (3 h) of 15.9 s and a Bas (3 h) of 0%. It also gave an Eos (3 h) of 0.8%, a Fbg (3 h) of 241.6 mg/dL and a Hb (3 h) of 13.2 g/dL. It also gave a Ht (3 h) of 39.5%, a Lym (3 h) of 74% and an MCH (3 h) of 21.6 pg. For the same molecule, the MCHC (3 h) was 33.5%, the MCV (3 h) was 64.4 fL and the Mono (3 h) was 8.4%. For the same molecule, the Neu (3 h) was 16.8%, the PT (3 h) was 11.8 s and the Plat (3 h) was 109.2 x10_4/uL. For the same molecule, the RBC (3 h) was 613.4 x10_4/ul, the Ret (3 h) was 9.5% and the WBC (3 h) was 98.2 x10_2/uL. For the same molecule, the LIVER (3 h) was 9.3 g, the A/G (3 h) was 2.4 and the ALP (3 h) was 1373.4 IU/L. For the same molecule, the ALT (3 h) was 40.8 IU/L, the AST (3 h) was 69.4 IU/L and the BUN (3 h) was 11 mg/dL. It also gave a CRE (3 h) of 0.3 mg/dL, a Ca (3 h) of 11.1 mg/dL and a Cl (3 h) of 103.6 meq/L. The DBIL (3 h) was 0.01 mg/dL, the GLC (3 h) was 175.6 mg/dL and the IP (3 h) was 9.4 mg/dL. It also gave a K (3 h) of 4.4 meq/L, an LDH (3 h) of 117.8 IU/L and a Na (3 h) of 138.6 meq/L. For the same molecule, the PL (3 h) was 150.4 mg/dL, the RALB (3 h) was 3.7 g/dL and the TBIL (3 h) was 0.044 mg/dL. The TC (3 h) was 87.2 mg/dL, the TG (3 h) was 52.4 mg/dL and the TP (3 h) was 5.3 g/dL. For the same molecule, the gamma-GTP (3 h) was 0 IU/L, the TERMINAL_BW (6 h) was 197.1 g and the APTT (6 h) was 16.4 s. It also gave a Bas (6 h) of 0%, an Eos (6 h) of 0.8% and a Fbg (6 h) of 232 mg/dL. It also gave a Hb (6 h) of 13.4 g/dL, a Ht (6 h) of 39.8% and a Lym (6 h) of 77.2%. It also gave an MCH (6 h) of 21.5 pg, an MCHC (6 h) of 33.6% and an MCV (6 h) of 63.9 fL. For the same molecule, the Mono (6 h) was 9.6%, the Neu (6 h) was 12.4% and the PT (6 h) was 12.2 s. It also gave a Plat (6 h) of 127 x10_4/uL, an RBC (6 h) of 623.4 x10_4/ul and a Ret (6 h) of 8.9%. It also gave a WBC (6 h) of 127.4 x10_2/uL, an LIVER (6 h) of 8.9 g and an A/G (6 h) of 2.5. For the same molecule, the ALP (6 h) was 1236 IU/L, the ALT (6 h) was 36.4 IU/L and the AST (6 h) was 63.4 IU/L. It also gave a BUN (6 h) of 10.4 mg/dL, a CRE (6 h) of 0.4 mg/dL and a Ca (6 h) of 10.8 mg/dL. For the same molecule, the Cl (6 h) was 104.8 meq/L, the DBIL (6 h) was 0.01 mg/dL and the GLC (6 h) was 191.6 mg/dL. It also gave an IP (6 h) of 9.3 mg/dL, a K (6 h) of 4.4 meq/L and an LDH (6 h) of 96.8 IU/L. It also gave a Na (6 h) of 138.8 meq/L, a PL (6 h) of 135.4 mg/dL and an RALB (6 h) of 3.9 g/dL. It also gave a TBIL (6 h) of 0.056 mg/dL, a TC (6 h) of 79.8 mg/dL and a TG (6 h) of 52.4 mg/dL. It also gave a TP (6 h) of 5.5 g/dL, a gamma-GTP (6 h) of 0 IU/L and a TERMINAL_BW (9 h) of 203.5 g. It also gave an APTT (9 h) of 15.9 s, a Bas (9 h) of 0% and an Eos (9 h) of 1%. The Fbg (9 h) was 234.6 mg/dL, the Hb (9 h) was 13 g/dL and the Ht (9 h) was 38.7%. The Lym (9 h) was 76.2%, the MCH (9 h) was 22 pg and the MCHC (9 h) was 33.7%. It also gave an MCV (9 h) of 65.1 fL, a Mono (9 h) of 8.8% and a Neu (9 h) of 14.6%. It also gave a PT (9 h) of 12.2 s, a Plat (9 h) of 117.6 x10_4/uL and an RBC (9 h) of 595.4 x10_4/ul. For the same molecule, the Ret (9 h) was 9.4%, the WBC (9 h) was 108 x10_2/uL and the LIVER (9 h) was 8.7 g. For the same molecule, the A/G (9 h) was 2.5, the ALP (9 h) was 1123.8 IU/L and the ALT (9 h) was 32.8 IU/L. The AST (9 h) was 63.8 IU/L, the BUN (9 h) was 11.6 mg/dL and the CRE (9 h) was 0.3 mg/dL. For the same molecule, the Ca (9 h) was 10.9 mg/dL, the Cl (9 h) was 104.2 meq/L and the DBIL (9 h) was 0.01 mg/dL. For the same molecule, the GLC (9 h) was 195.2 mg/dL, the IP (9 h) was 10.4 mg/dL and the K (9 h) was 4.6 meq/L. It also gave an LDH (9 h) of 109.6 IU/L, a Na (9 h) of 139.4 meq/L and a PL (9 h) of 140 mg/dL. The RALB (9 h) was 3.8 g/dL, the TBIL (9 h) was 0.044 mg/dL and the TC (9 h) was 84.6 mg/dL. The TG (9 h) was 47.8 mg/dL, the TP (9 h) was 5.4 g/dL and the gamma-GTP (9 h) was 0.2 IU/L. For the same molecule, the TERMINAL_BW (24 h) was 219.1 g, the APTT (24 h) was 16.3 s and the Bas (24 h) was 0%. For the same molecule, the Eos (24 h) was 1.2%, the Fbg (24 h) was 228.6 mg/dL and the Hb (24 h) was 12.7 g/dL. It also gave a Ht (24 h) of 37.5%, a Lym (24 h) of 72% and an MCH (24 h) of 21.1 pg. It also gave an MCHC (24 h) of 33.8%, an MCV (24 h) of 62.5 fL and a Mono (24 h) of 9.4%. It also gave a Neu (24 h) of 17.8%, a PT (24 h) of 11.6 s and a Plat (24 h) of 138.4 x10_4/uL. For the same molecule, the RBC (24 h) was 600 x10_4/ul, the Ret (24 h) was 8.1% and the WBC (24 h) was 106.6 x10_2/uL. The LIVER (24 h) was 10.9 g, the A/G (24 h) was 2.4 and the ALP (24 h) was 1480.2 IU/L. For the same molecule, the ALT (24 h) was 37.4 IU/L, the AST (24 h) was 62.4 IU/L and the BUN (24 h) was 17 mg/dL. The CRE (24 h) was 0.4 mg/dL, the Ca (24 h) was 11.4 mg/dL and the Cl (24 h) was 103.2 meq/L. For the same molecule, the DBIL (24 h) was 0.012 mg/dL, the GLC (24 h) was 185.6 mg/dL and the IP (24 h) was 7.6 mg/dL. It also gave a K (24 h) of 4.6 meq/L, an LDH (24 h) of 84.2 IU/L and a Na (24 h) of 139 meq/L. The PL (24 h) was 160.4 mg/dL, the RALB (24 h) was 3.9 g/dL and the TBIL (24 h) was 0.034 mg/dL. The TC (24 h) was 84 mg/dL, the TG (24 h) was 120.4 mg/dL and the TP (24 h) was 5.5 g/dL. The gamma-GTP (24 h) was 0.2 IU/L.
